According to the supplement of paper PMC10307832:

Key:
Assay in all cases: relative viability (nuclei count vs DMSO), 5 days (fraction); higher = more cells survive
IPA-3 + Navitoclax = compound: C1=CC=C2C(=C1)C=CC(=C2SSC3=C(C=CC4=CC=CC=C43)O)O [IPA-3] + CC1(C)CCC(c2ccc(Cl)cc2)=C(CN2CCN(c3ccc(C(=O)NS(=O)(=O)c4ccc(N[C@H](CCN5CCOCC5)CSc5ccccc5)c(S(=O)(=O)C(F)(F)F)c4)cc3)CC2)C1 [Navitoclax] (partner 0.5 µM)
Procedure, shortened: (§1)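 Relative viability is defined as nuclei in treated wells over nuclei in vehicle wells. Duplicate plates were run and medians reported. Lung cancer cell lines in 1536-well plates were dosed by pin tool one day after seeding, with one drug or with a fixed anchor-drug dose plus five library-drug doses (not always all listed) in √10 steps, and nuclei were counted after 5 days.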

Doramapimod + Luminespib = compound: Cc1ccc(-n2nc(C(C)(C)C)cc2NC(=O)Nc2ccc(OCCN3CCOCC3)c3ccccc23)cc1 [Doramapimod] + CCNC(=O)c1noc(-c2cc(C(C)C)c(O)cc2O)c1-c1ccc(CN2CCOCC2)cc1 [Luminespib] (partner 0.01 µM)
Procedure, shortened: as §1

Doramapimod + Pictilisib = compound: Cc1ccc(-n2nc(C(C)(C)C)cc2NC(=O)Nc2ccc(OCCN3CCOCC3)c3ccccc23)cc1 [Doramapimod] + CS(=O)(=O)N1CCN(Cc2cc3nc(-c4cccc5[nH]ncc45)nc(N4CCOCC4)c3s2)CC1 [Pictilisib] (partner 1 µM)
Procedure, shortened: as §1

201T
relative viability (IPA-3 + Navitoclax; first compound 0.2 µM): 1.21
relative viability (IPA-3 + Navitoclax; first compound 0.6325 µM): 1.19
relative viability (IPA-3 + Navitoclax; first compound 2 µM): 1.21
relative viability (IPA-3 + Navitoclax; first compound 6.325 µM): 1.22
relative viability (IPA-3 + Navitoclax; first compound 20 µM): 1.18
relative viability (Doramapimod + Luminespib; first compound 0.02 µM): 1.01
relative viability (Doramapimod + Luminespib; first compound 0.06325 µM): 1.01
relative viability (Doramapimod + Luminespib; first compound 0.2 µM): 0.99
relative viability (Doramapimod + Luminespib; first compound 0.6325 µM): 1.18
relative viability (Doramapimod + Luminespib; first compound 2 µM): 1
relative viability (Doramapimod + Pictilisib; first compound 0.02 µM): 0.696
relative viability (Doramapimod + Pictilisib; first compound 0.06325 µM): 0.662
relative viability (Doramapimod + Pictilisib; first compound 0.2 µM): 0.668
relative viability (Doramapimod + Pictilisib; first compound 0.6325 µM): 0.863
relative viability (Doramapimod + Pictilisib; first compound 2 µM): 0.609

A549
relative viability (IPA-3 + Navitoclax; first compound 0.2 µM): 1.27
relative viability (IPA-3 + Navitoclax; first compound 0.6325 µM): 1.21
relative viability (IPA-3 + Navitoclax; first compound 2 µM): 1.39
relative viability (IPA-3 + Navitoclax; first compound 6.325 µM): 1.28
relative viability (IPA-3 + Navitoclax; first compound 20 µM): 1.18
relative viability (Doramapimod + Pictilisib; first compound 0.02 µM): 0.533
relative viability (Doramapimod + Pictilisib; first compound 0.06325 µM): 0.492
relative viability (Doramapimod + Pictilisib; first compound 0.2 µM): 0.522
relative viability (Doramapimod + Pictilisib; first compound 0.6325 µM): 0.497
relative viability (Doramapimod + Pictilisib; first compound 2 µM): 0.421

A-427
relative viability (IPA-3 + Navitoclax; first compound 0.2 µM): 0.996
relative viability (IPA-3 + Navitoclax; first compound 0.6325 µM): 0.857
relative viability (IPA-3 + Navitoclax; first compound 2 µM): 0.98
relative viability (IPA-3 + Navitoclax; first compound 6.325 µM): 0.856
relative viability (IPA-3 + Navitoclax; first compound 20 µM): 0.99
relative viability (Doramapimod + Luminespib; first compound 0.02 µM): 0.979
relative viability (Doramapimod + Luminespib; first compound 0.06325 µM): 0.806
relative viability (Doramapimod + Luminespib; first compound 0.2 µM): 1.08
relative viability (Doramapimod + Luminespib; first compound 2 µM): 0.918
relative viability (Doramapimod + Pictilisib; first compound 0.02 µM): 0.642
relative viability (Doramapimod + Pictilisib; first compound 0.06325 µM): 0.814
relative viability (Doramapimod + Pictilisib; first compound 0.2 µM): 0.845
relative viability (Doramapimod + Pictilisib; first compound 2 µM): 0.676

ABC-1
relative viability (Doramapimod + Luminespib; first compound 0.02 µM): 0.423
relative viability (Doramapimod + Luminespib; first compound 0.06325 µM): 0.67
relative viability (Doramapimod + Luminespib; first compound 0.2 µM): 0.156
relative viability (Doramapimod + Luminespib; first compound 0.6325 µM): 0.863
relative viability (Doramapimod + Luminespib; first compound 2 µM): 0.555
relative viability (Doramapimod + Pictilisib; first compound 0.02 µM): 0.847
relative viability (Doramapimod + Pictilisib; first compound 0.06325 µM): 0.614
relative viability (Doramapimod + Pictilisib; first compound 0.2 µM): 0.646
relative viability (Doramapimod + Pictilisib; first compound 0.6325 µM): 0.757
relative viability (Doramapimod + Pictilisib; first compound 2 µM): 0.737

BEN
relative viability (IPA-3 + Navitoclax; first compound 0.2 µM): 0.0641
relative viability (IPA-3 + Navitoclax; first compound 0.6325 µM): 0.0847
relative viability (IPA-3 + Navitoclax; first compound 2 µM): 0.0621
relative viability (IPA-3 + Navitoclax; first compound 6.325 µM): 0.0718
relative viability (IPA-3 + Navitoclax; first compound 20 µM): 0.0865
relative viability (Doramapimod + Luminespib; first compound 0.02 µM): 0.537
relative viability (Doramapimod + Luminespib; first compound 0.06325 µM): 0.56
relative viability (Doramapimod + Luminespib; first compound 0.2 µM): 0.351
relative viability (Doramapimod + Luminespib; first compound 0.6325 µM): 0.13
relative viability (Doramapimod + Luminespib; first compound 2 µM): 0.352
relative viability (Doramapimod + Pictilisib; first compound 0.02 µM): 0.578
relative viability (Doramapimod + Pictilisib; first compound 0.06325 µM): 0.501
relative viability (Doramapimod + Pictilisib; first compound 0.2 µM): 0.524
relative viability (Doramapimod + Pictilisib; first compound 0.6325 µM): 0.559
relative viability (Doramapimod + Pictilisib; first compound 2 µM): 0.531

CAL-12T
relative viability (IPA-3 + Navitoclax; first compound 0.2 µM): 1.41
relative viability (IPA-3 + Navitoclax; first compound 0.6325 µM): 1.21
relative viability (IPA-3 + Navitoclax; first compound 2 µM): 1.39
relative viability (IPA-3 + Navitoclax; first compound 6.325 µM): 1.19
relative viability (IPA-3 + Navitoclax; first compound 20 µM): 1.23
relative viability (Doramapimod + Luminespib; first compound 0.02 µM): 0.363
relative viability (Doramapimod + Luminespib; first compound 0.06325 µM): 0.381
relative viability (Doramapimod + Luminespib; first compound 0.2 µM): 0.345
relative viability (Doramapimod + Luminespib; first compound 0.6325 µM): 0.364
relative viability (Doramapimod + Luminespib; first compound 2 µM): 0.395
relative viability (Doramapimod + Pictilisib; first compound 0.02 µM): 0.456
relative viability (Doramapimod + Pictilisib; first compound 0.06325 µM): 0.378
relative viability (Doramapimod + Pictilisib; first compound 0.2 µM): 0.463
relative viability (Doramapimod + Pictilisib; first compound 0.6325 µM): 0.33
relative viability (Doramapimod + Pictilisib; first compound 2 µM): 0.392

COR-L23
relative viability (IPA-3 + Navitoclax; first compound 0.2 µM): 1.11
relative viability (IPA-3 + Navitoclax; first compound 0.6325 µM): 0.975
relative viability (IPA-3 + Navitoclax; first compound 2 µM): 1.07
relative viability (IPA-3 + Navitoclax; first compound 6.325 µM): 0.983
relative viability (IPA-3 + Navitoclax; first compound 20 µM): 0.926
relative viability (Doramapimod + Luminespib; first compound 0.02 µM): 0.71
relative viability (Doramapimod + Luminespib; first compound 0.06325 µM): 0.659
relative viability (Doramapimod + Luminespib; first compound 0.2 µM): 0.787
relative viability (Doramapimod + Luminespib; first compound 0.6325 µM): 0.741
relative viability (Doramapimod + Luminespib; first compound 2 µM): 0.541
relative viability (Doramapimod + Pictilisib; first compound 0.02 µM): 0.812
relative viability (Doramapimod + Pictilisib; first compound 0.06325 µM): 0.791
relative viability (Doramapimod + Pictilisib; first compound 0.2 µM): 0.796
relative viability (Doramapimod + Pictilisib; first compound 0.6325 µM): 0.797
relative viability (Doramapimod + Pictilisib; first compound 2 µM): 0.751

COR-L 105
relative viability (IPA-3 + Navitoclax; first compound 0.2 µM): 0.866
relative viability (IPA-3 + Navitoclax; first compound 0.6325 µM): 1.07
relative viability (IPA-3 + Navitoclax; first compound 2 µM): 0.925
relative viability (IPA-3 + Navitoclax; first compound 6.325 µM): 0.644
relative viability (IPA-3 + Navitoclax; first compound 20 µM): 0.782
relative viability (Doramapimod + Luminespib; first compound 0.02 µM): 0.883
relative viability (Doramapimod + Luminespib; first compound 0.06325 µM): 0.73
relative viability (Doramapimod + Luminespib; first compound 0.2 µM): 0.645
relative viability (Doramapimod + Luminespib; first compound 0.6325 µM): 0.851
relative viability (Doramapimod + Luminespib; first compound 2 µM): 0.719
relative viability (Doramapimod + Pictilisib; first compound 0.02 µM): 0.425
relative viability (Doramapimod + Pictilisib; first compound 0.06325 µM): 0.344
relative viability (Doramapimod + Pictilisib; first compound 0.2 µM): 0.374
relative viability (Doramapimod + Pictilisib; first compound 0.6325 µM): 0.426
relative viability (Doramapimod + Pictilisib; first compound 2 µM): 0.379

Calu-6
relative viability (IPA-3 + Navitoclax; first compound 0.2 µM): 0.794
relative viability (IPA-3 + Navitoclax; first compound 0.6325 µM): 0.839
relative viability (IPA-3 + Navitoclax; first compound 2 µM): 0.833
relative viability (IPA-3 + Navitoclax; first compound 6.325 µM): 0.753
relative viability (IPA-3 + Navitoclax; first compound 20 µM): 0.536
relative viability (Doramapimod + Pictilisib; first compound 0.02 µM): 0.89
relative viability (Doramapimod + Pictilisib; first compound 0.06325 µM): 0.891
relative viability (Doramapimod + Pictilisib; first compound 0.2 µM): 0.91
relative viability (Doramapimod + Pictilisib; first compound 0.6325 µM): 0.997
relative viability (Doramapimod + Pictilisib; first compound 2 µM): 0.844

ChaGo-K-1
relative viability (IPA-3 + Navitoclax; first compound 0.2 µM): 1.07
relative viability (IPA-3 + Navitoclax; first compound 0.6325 µM): 1
relative viability (IPA-3 + Navitoclax; first compound 2 µM): 0.836
relative viability (IPA-3 + Navitoclax; first compound 6.325 µM): 1.06
relative viability (IPA-3 + Navitoclax; first compound 20 µM): 1.17
relative viability (Doramapimod + Luminespib; first compound 0.02 µM): 0.594
relative viability (Doramapimod + Luminespib; first compound 0.06325 µM): 0.49
relative viability (Doramapimod + Luminespib; first compound 0.2 µM): 0.595
relative viability (Doramapimod + Luminespib; first compound 0.6325 µM): 0.52
relative viability (Doramapimod + Luminespib; first compound 2 µM): 0.541
relative viability (Doramapimod + Pictilisib; first compound 0.02 µM): 0.805
relative viability (Doramapimod + Pictilisib; first compound 0.06325 µM): 0.888
relative viability (Doramapimod + Pictilisib; first compound 0.2 µM): 0.96
relative viability (Doramapimod + Pictilisib; first compound 2 µM): 0.688

EBC-1
relative viability (IPA-3 + Navitoclax; first compound 0.2 µM): 0.417
relative viability (IPA-3 + Navitoclax; first compound 0.6325 µM): 0.392
relative viability (IPA-3 + Navitoclax; first compound 2 µM): 0.387
relative viability (IPA-3 + Navitoclax; first compound 6.325 µM): 0.333
relative viability (IPA-3 + Navitoclax; first compound 20 µM): 0.309
relative viability (Doramapimod + Pictilisib; first compound 0.02 µM): 0.355
relative viability (Doramapimod + Pictilisib; first compound 0.06325 µM): 0.279
relative viability (Doramapimod + Pictilisib; first compound 0.2 µM): 0.363
relative viability (Doramapimod + Pictilisib; first compound 0.6325 µM): 0.355
relative viability (Doramapimod + Pictilisib; first compound 2 µM): 0.247

EKVX
relative viability (IPA-3 + Navitoclax; first compound 0.2 µM): 1.05
relative viability (IPA-3 + Navitoclax; first compound 0.6325 µM): 0.608
relative viability (IPA-3 + Navitoclax; first compound 2 µM): 1.05
relative viability (IPA-3 + Navitoclax; first compound 6.325 µM): 0.851
relative viability (IPA-3 + Navitoclax; first compound 20 µM): 1.23
relative viability (Doramapimod + Luminespib; first compound 0.02 µM): 0.92
relative viability (Doramapimod + Luminespib; first compound 0.06325 µM): 0.868
relative viability (Doramapimod + Luminespib; first compound 0.2 µM): 0.906
relative viability (Doramapimod + Luminespib; first compound 0.6325 µM): 0.914
relative viability (Doramapimod + Luminespib; first compound 2 µM): 0.77
relative viability (Doramapimod + Pictilisib; first compound 0.02 µM): 0.391
relative viability (Doramapimod + Pictilisib; first compound 0.06325 µM): 0.375
relative viability (Doramapimod + Pictilisib; first compound 0.2 µM): 0.364
relative viability (Doramapimod + Pictilisib; first compound 0.6325 µM): 0.513
relative viability (Doramapimod + Pictilisib; first compound 2 µM): 0.352
